Assay results: PMC8700061, “Fragment-Sized and Bidentate (Immuno)Proteasome Inhibitors Derived from Cysteine and Threonine Targeting Warheads” (Cells, 2021)
Marks after values point to notes of the source that are not given here.

Experiments:
Format in all cases: biochemical
β2 subunit of human cCP = target: T1, β2 subunit of human cCP (Homo sapiens, UniProt P49720+Q99436); assay: Residual β2 activity, Boc-LRR-AMC; settings: PA28α; for remaining activity at 10 µM: Table 3, read-out: β2 (RA [%]); for β2 (RA [%]): 10 µM
T1 construct: purchased Boston Biochem, Inc., Cambridge, MA, USA
Procedure: (§1) Residual activity measurements were performed at 10 μM final concentrations in the assay buffer (0.01% SDS, 50 mM Tris-HCl, 0.5 mM EDTA, pH 7.4). Stock solutions of the compounds were prepared in DMSO. To 50 μL of each compound in buffer, 25 μL of 0.8 nM human iCP or human cCP (both from Boston Biochem, Inc., Cambridge, MA, USA) were added. After incubation at 37 °C for 30 min, the reaction was started by adding of 25 μL of 100 μM relevant fluorogenic substrate: acetyl-Nle-Pro-Nle-Asp-AMC (Ac-nLPnLD-AMC, (Bachem, Bubendorf, Switzerland)) for β1, acetyl-Pro-Ala-Leu-7-amino-4-methylcoumarin (Ac-PAL-AMC, (Boston Biochem, Inc., Cambridge, MA, USA)) for β1i, t-butyloxycarbonyl-Leu-Arg-Arg-7-amino-4-methylcoumarin (Boc-LRR-AMC, (Bachem, Bubendorf, Switzerland)) for β2 and β2i, succinyl-Leu-Leu-Val-Tyr-7-amino-4-methylcoumarin (Suc-LLVY-AMC) (Bachem, Bubendorf, Switzerland) for β5 and β5i. Reaction progress was recorded on BioTek Synergy HT microplate reader by monitoring fluorescence at 460 nm (λex = 360 nm) for 90 min at 37 °C. The initial linear ranges were used to calculate velocity and determine residual activity. In the case of evaluation of β1, βi, β2, and β2i activities, the assay buffer was modified by replacing SDS with the proteasomal activator PA28α (Boston Biochem, Inc., Cambridge, MA, USA).

hMAO-A = target: T2, hMAO-A (Homo sapiens, UniProt P21397); assay: Monoamine oxidase assay, hMAO-A; settings: 30 min pre-incubation, read-out: Residual activity [%] ± SD, hMAO-A
T2 construct: purchased Sigma Aldrich; host or cells: BTI-TN-5B1-4 insect cells
T2 sequence (P21397 1-527): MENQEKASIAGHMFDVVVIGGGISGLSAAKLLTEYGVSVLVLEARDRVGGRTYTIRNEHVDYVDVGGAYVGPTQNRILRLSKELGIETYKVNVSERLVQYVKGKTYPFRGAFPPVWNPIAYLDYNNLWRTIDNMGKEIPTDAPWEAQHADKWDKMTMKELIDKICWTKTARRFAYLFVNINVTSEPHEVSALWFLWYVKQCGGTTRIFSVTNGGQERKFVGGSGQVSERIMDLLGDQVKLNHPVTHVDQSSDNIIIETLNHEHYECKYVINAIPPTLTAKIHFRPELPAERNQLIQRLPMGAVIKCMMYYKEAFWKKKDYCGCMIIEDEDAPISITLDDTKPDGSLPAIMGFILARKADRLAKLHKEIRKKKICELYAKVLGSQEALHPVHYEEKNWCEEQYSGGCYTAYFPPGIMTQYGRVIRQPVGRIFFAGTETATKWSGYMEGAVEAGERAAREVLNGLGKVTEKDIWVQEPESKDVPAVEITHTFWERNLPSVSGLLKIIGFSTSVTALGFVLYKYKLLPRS
Procedure: (§2) The effects of the test compounds on hMAO were investigated using fluorimetric assay. Recombinant hMAO-A and hMAO-B, expressed in BTI-TN-5B1-4 insect cells, horseradish peroxidase type II and p-tyramine hydrochloride were purchased from Sigma Aldrich. Amplex Red was synthesized as previously described.
(§3) Briefly, 50 mM sodium phosphate buffer (pH = 7.4, 0.05 vol.% Triton X-114) containing the compounds or the reference inhibitors and hMAO were incubated at 37 °C for 30 min. The reaction was started by adding Amplex Red (final concentration, 250 µM), horseradish peroxidase (final activity, 1 U/mL), and p-tyramine (final concentration, 1 mM). The increase in fluorescence (λex = 530 nm, λem = 590 nm) was monitored for 30 min at 37 °C. DMSO at a concentration of 1.5% (v/v) was used for the control experiments. For the determination of blank (b), the enzyme was replaced by phosphate-buffered solution. Each measurement was performed in duplicate. Inhibitory potencies were expressed as residual activities (RA), as described under the Cholinesterase assay section.

β5 subunit of human cCP = target: T3, β5 subunit of human cCP (Homo sapiens, UniProt P20618+P28074); assay: Inhibition of β5 activity (RA, IC50), Suc-LLVY-AMC; settings: 30 min pre-incubation, SDS
T3 construct: purchased Boston Biochem, Inc., Cambridge, MA, USA
Procedure: as §1
(§4) Final assay mixtures contained 0.2 nM human iCP or 0.2 nM human cCP in assay buffer (0.01% SDS (or PA28α in cases of β1, β1i subunits), 50 mM Tris-HCl, 0.5 mM EDTA, pH 7.4). Inhibitors were dissolved in DMSO and added to the black 96-well plates for at least eight different concentrations (the final concentration of DMSO was not more than 1%). After 30 min of incubation at 37 °C, the reaction was started by adding the substrate Suc-LLVY-AMC (for β5 and β5i) or Ac-nLPnLD-AMC (for β1) or Ac-PAL-AMC (for β1i). Fluorescence was monitored at 460 nm (λex = 360 nm) for 90 min at 37 °C. The progress of the reactions was recorded and the initial linear ranges were used to calculate the velocity. IC50 values were calculated using GraphPadPrism (GraphPad Software, San Diego, CA, USA) and are means from at least three independent determinations.

hMAO-B = target: T4, hMAO-B (Homo sapiens, UniProt P27338); assay: Monoamine oxidase assay, hMAO-B; settings: 30 min pre-incubation, read-out: Residual activity [%] ± SD, hMAO-B
T4 construct: purchased Sigma Aldrich; host or cells: BTI-TN-5B1-4 insect cells
T4 sequence (P27338 1-520): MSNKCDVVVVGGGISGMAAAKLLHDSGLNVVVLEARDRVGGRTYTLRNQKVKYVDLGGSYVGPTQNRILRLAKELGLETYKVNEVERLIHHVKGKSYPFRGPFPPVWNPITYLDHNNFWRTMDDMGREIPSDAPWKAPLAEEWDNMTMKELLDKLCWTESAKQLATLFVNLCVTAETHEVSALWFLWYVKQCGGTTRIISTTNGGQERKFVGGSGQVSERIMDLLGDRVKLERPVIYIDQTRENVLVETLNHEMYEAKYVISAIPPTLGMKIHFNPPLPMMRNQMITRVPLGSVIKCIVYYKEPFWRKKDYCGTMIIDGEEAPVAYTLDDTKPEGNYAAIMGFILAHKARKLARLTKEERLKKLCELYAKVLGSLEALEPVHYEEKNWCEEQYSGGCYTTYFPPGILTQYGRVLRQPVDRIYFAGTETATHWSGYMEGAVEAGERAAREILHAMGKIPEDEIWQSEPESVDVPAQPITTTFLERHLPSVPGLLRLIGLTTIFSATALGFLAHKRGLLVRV
Procedure: as §2, §3

β1i subunit of human iCP = target: T5, β1i subunit of human iCP (Homo sapiens, UniProt P28065+P40306); assay: Inhibition of β1i activity (RA, IC50), Ac-PAL-AMC; settings: PA28α; for remaining activity at 10 µM: Table 3, read-out: β1i residual activity at 10 µM; for IC50: 30 min pre-incubation
T5 construct: purchased Boston Biochem, Inc., Cambridge, MA, USA
Procedure: as §1, §4

β1 subunit of human cCP = target: T6, β1 subunit of human cCP (Homo sapiens, UniProt P28072+Q99436); assay: Inhibition of β1 activity (RA, IC50), Ac-nLPnLD-AMC; settings: PA28α; for IC50: 30 min pre-incubation
T6 construct: purchased Boston Biochem, Inc., Cambridge, MA, USA
Procedure: as §1, §4

Compound | remaining activity at 10 µM (β2 subunit of human cCP) [%] | remaining activity at 100 µM (hMAO-A) [%] | β5 (RA [%]) at 10 µM (β5 subunit of human cCP) [% ^c] | remaining activity at 100 µM (hMAO-B) [%] | remaining activity at 10 µM (β1i subunit of human iCP) [%] | remaining activity at 10 µM (β1 subunit of human cCP; 10 µM, Table 3) [%] | β2 (RA [%]) (β2 subunit of human cCP; Table 6) | IC50 (β5 subunit of human cCP) [µM] | IC50 (β1i subunit of human iCP) [µM] | IC50 (β1 subunit of human cCP) [µM] | β2 (RA [%]) (β2 subunit of human cCP; Table 3) | β1 (RA [%]) (β1 subunit of human cCP; 10 µM, Table 3) [%]
CC(=O)Oc1ccc2oc(C#N)nc2c1 [Compound 15] | > 90 | 16 | 55 | 33 | > 90 | > 90 |  |  |  |  |  | 
CC(C)C[C@H](NC(=O)Cc1ccc2oc(C#N)nc2c1)B(O)O [Compound 40] |  | 36 |  | 44 |  |  | NA (NA, Not active (RA above 95%)) | 2 ± 0.7 | 2.1 ± 0.1 | 3.7 ± 0.9 |  | 
CC(=O)Oc1cccc2oc(C#N)nc12 [Compound 14] | > 90 | 34 | 56 | > 50 | > 90 | > 90 |  |  |  |  |  | 
CC(C)C[C@H](NC(=O)CCn1c(C#N)nc2cccc(Cl)c21)B1O[C@@H]2C[C@@H]3C[C@@H](C3(C)C)[C@]2(C)O1 [Compound 38] |  | 24 ± 1 |  | 42 |  |  | NA (NA, Not active (RA above 95%)) | 2 ± 0.7 | 1.9 | 5 ± 0.1 |  | 
CC(C)C[C@H](NC(=O)CCCn1c(C#N)nc2ccccc21)B1O[C@@H]2C[C@@H]3C[C@@H](C3(C)C)[C@]2(C)O1 [Compound 31] |  | 24 |  | > 50 |  |  | NA (NA, Not active (RA above 95%)) | 13 ± 4 | 6 ± 3.2 | 8.4 ± 1.6 |  | 
CC(C)C[C@H](NC(=O)CCn1c(C#N)nc2ccccc21)B(O)O [Compound 34] |  | > 50 |  | > 50 |  |  | NA (NA, Not active (RA above 95%)) | 1.8 ± 0.4 | 2.8 ± 0.5 | 3.2 ± 0.2 |  | 
COc1cccc2oc(C#N)nc12 [Compound 6] |  | 27 | 63 | 35 ± 1 |  |  |  |  | 78 |  | NA (NA, Not active (RA above 90%)) | 82
N#Cc1nc2cc(O)ccc2o1 [Compound 11] | > 90 | 26 | 53 | 29 | > 90 | > 90 |  |  |  |  |  | 
CC(C)C[C@H](NC(=O)CCn1c(C#N)nc2ccccc21)B1O[C@@H]2C[C@@H]3C[C@@H](C3(C)C)[C@]2(C)O1 [Compound 30] |  | > 50 |  | > 50 |  |  | NA (NA, Not active (RA above 95%)) | 0.7 ± 0.1 | 1.2 ± 0.1 | 0.4 |  | 
N#Cc1nc2c(O)cccc2o1 [Compound 10] | > 90 | 38 ± 2 |  | > 50 | > 90 | > 90 |  | 30 ± 12 |  |  |  | 
CC(C)C[C@H](NC(=O)Cc1ccc2oc(C#N)nc2c1)B1O[C@@H]2C[C@@H]3C[C@@H](C3(C)C)[C@]2(C)O1 [Compound 39] |  | 42 |  | 47 ± 1 |  |  | NA (NA, Not active (RA above 95%)) | 3.6 ± 1.1 | 1.3 | 2.9 ± 0.4 |  | 
CC(C)C[C@H](NC(=O)CCCn1c(C#N)nc2ccccc21)B(O)O [Compound 35] |  | > 50 |  | > 50 |  |  | NA (NA, Not active (RA above 95%)) | 16 ± 8 | 9.4 ± 1.9 | 13 ± 2 |  | 
N#Cc1nc2cccc(O)c2o1 [Compound 13] | 71 | 48 ± 1 |  | > 50 | > 90 | 76 |  | 11 ± 9 |  |  |  | 
C=Cc1nc(CC(=O)N[C@@H](CC(C)C)B2O[C@@H]3C[C@@H]4C[C@@H](C4(C)C)[C@]3(C)O2)cs1 [Compound 28] |  | 42 |  | > 50 |  |  | NA (NA, Not active (RA above 95%)) | 8.2 | 2.2 ± 0.1 | 4.8 ± 0.2 |  | 
